Measurements published in patent US20240115537A1, “COMPOSITION FOR PREVENTING OR TREATING BREAST CANCER COMPRISING COMPOUND DERIVED FROM DENDROPANAX MORBIFERUS” (JEJU NATIONAL UNIVERSITY INDUSTRY-ACADEMIC COOPERATION …, priority 2022, published 2024).

Experiments:
[1] = test system: CD44high/CD24low population of MDA-MB-231 cells; assay: CD44+/CD24- flow cytometry; type: cell-based, human; conditions: 50 μM, 24 hours, control 80.8%
Protocol: MDA-MB-231 cancer cells (1.5×10^6 cells) were cultured in a 6-well plate for 24 hours and treated with DMSO as a control group or dihydroconiferyl ferulate (50 μM) for 24 hours. Thereafter, the cells isolated into single cells were incubated with an anti-human CD44 antibody (FITC-conjugated) and an anti-human CD24 antibody (PE-conjugated) (BD) at 4° C. for 45 minutes. After washing with 1×PBS, CD44^+/CD24^− cells were examined using a flow cytometer Accuri C6 machine (BD San Jose, CA, USA).
CD44^+/CD24^−, a representative marker of breast cancer stem cells, was associated with stem cell-like activity in breast cancer, and since CD44^+/CD24^− MDA-MB-231 cells show higher tumorigenesis and metastasis than CD44−/CD24^+ MDA-MB-231 cells, MDA-MB-231 cells were treated with dihydroconiferyl ferulate, and then changes in the CD44^high/CD24^low population were measured, and the experimental method was described in Experimental Example 5.

MCF-7 cells = assay: Cell proliferation / viability assay (EZ-Cytox); type: cell-based; conditions: Homo sapiens, MCF7, A of FIG. 6, read-out: IC50 (drug concentration required for 50% growth reduction in a survival curve)
Protocol: Human breast cancer cell lines, MDA-MB-231 and MCF-7 cells, were purchased from the Korea Cell Line Bank and cultured in an incubator with an atmospheric environment of 5% CO2 and a Dulbecco's Modified Eagle's Medium (DMEM) containing 10% fetal bovine serum (Corning, Glendale, AZ, USA) and 1% penicillin/streptomycin.
MCF-7 cells (1.5×10^6 cells/plate) and MDA-MB-231 cells (1.0×10^6 cells/plate) were seeded into a 96-well plate for 24 hours and incubated with dihydroconiferyl ferulate (0, 10, 25, 50, 75, 100, 150, and 200 μM). Thereafter, cell viability was examined using the EZ-Cytox Plus Kit (DoGenBio, Seoul, Korea) according to the manufacturer's protocol. OD450 values were measured using a VERSAmax ELISA reader (Molecular Device, San Jose, CA, USA).
Breast cancer cells MCF-7 and MDA-MB-231 were treated with dihydroconiferyl ferulate, a compound purified from the leaves of Dendropanax morbiferus H.Lev at various concentrations to test an antiproliferative effect, and an experimental method was described in Experimental Example 3.

For `COc1cc(/C=C/C(=O)OCCCc2ccc(O)c(OC)c2)ccc1O` [dihydroconiferyl ferulate], which CD44high/CD24low population [1] is on record?
The CD44high/CD24low population was 34.0%.

What about the IC50 (MCF-7 cells) of the same compound?
The IC50 was 112 µM.
